From US20210337838A1, “RECOMBINANT EXPRESSION OF FUMONISIN AMINE OXIDASE” (priority 2018, published 2021)
Where two headings read alike, the source gives them in different places.

Experiments:
AnFAO_15309 [1] = target: T1, AnFAO_15309 (Aspergillus niger, UniProt A2R252); format: biochemical; settings: 20 nM enzyme, 50 μM substrate, pH 7.0, 1 hr
Procedure: (§1) Absorbance was monitored at 571 nm every 10 mins for 1 hr. A standard curve consisting of 0-10 μM H2O2 was included to determine the absorbance for every μmol of H2O2 generated by the reaction.

[2] = system: fumonisin deamination activity from A. niger culture supernatants; experiment: Fumonisin chemotype preference of deamination activity, reverse-phase LC-MS; format: biochemical, Aspergillus niger; settings: for initial conversion rate of intact to deaminated fumonisin: FB1 and FB2 co-incubated at 37° C. with active sample following high-resolution ion exchange, n=2
Procedure: After each step, protein fractions were assayed for deamination activity by monitoring their ability to convert intact FB2 into FPy2 via reverse-phase liquid chromatography/mass spectrometry (LC-MS), as shown in FIG. 2. In particular, all MS data were collected with a Q-Exactive™ Quadrupole Orbitrap™ mass spectrometer (Thermo Scientific, MA, USA) coupled to an Agilent 1290 ultra-high-performance liquid chromatography (UHPLC) system. Fumonisins were resolved on a Zorbax™ Eclipse Plus Rapid Resolution High Definition (RRHD) C18 column (2.1×50 mm, 1.8 μm; Agilent Technologies, CA, USA), maintained at 35° C. The mobile phase was comprised of water with 0.1% formic acid (A), and acetonitrile with 0.1% formic acid (B) (Optima grade, Fisher Scientific, NJ, USA). The gradient consisted of 0% B for 0.5 min before increasing to 100% over 3 min, held at 100% for 2.5 min and reduced to 0% over 0.5 min. The fumonisins were detected in negative ionization mode using the following electrospray conditions: capillary voltage, 4.0 kV; capillary temperature, 400° C.; sheath gas, 17.00 units; auxiliary gas, 8.00 units; probe heater temperature, 450° C.; S Lens RF level, 45.00. The data-dependent acquisition method involved a full MS scan at 17,500 resolution over a scan range of 140-760 m/z; automatic gain control (AGC) target and maximum injection time (max IT) was 5×10^6 and 64 ms, respectively. The five highest intensity ions from the full scan (excluding isotopes) were sequentially selected using a 1.2 m/z isolation window and analyzed at a resolution of 17,500; AGC target, 1×10^5; max IT, 64 ms; normalized collision energy (NCE) 30; threshold intensity 9.1×10^4; and dynamic exclusion of 1.5 s. Fumonisins were detected by accurate mass (±5 ppm) and retention time (±0.1 min) and verified by MS/MS.
All samples assayed during protein purification were incubated at 37° C. with 1 μM FB2 (Sigma) unless stated otherwise. Reactions were terminated via addition of a 10-fold volume excess of 50% (v:v) methanol in water prior to reverse-phase LC/MS analysis represented in FIG. 2.

AnFAO_15309 [3] = target: T1, AnFAO_15309; experiment: Kinetic analysis of recombinant AnFAO_15309; format: biochemical
Procedure: as §1
The resulting mixture was twice extracted with equal volumes of ethyl acetate, dried, and re-suspended in reaction buffer.

[4] = substrate: CCCCCCCCCCCCCCC[C@@H](O)[C@@H](N)CO; experiment: purified protein, by the assay type; settings: other: recombinant AnFAO_15309; pH 7.0
[5] = substrate: CCCC[C@@H](C)[C@@H](O)[C@@H](O)C[C@@H](C)C[C@H](O)CCCC[C@@H](O)C[C@H](O)[C@H](C)N; experiment: purified protein, by the assay type; settings: other: recombinant AnFAO_15309; pH 7.0
[6] = Amplex red assay of AnFAO homolog clones; format: biochemical
Description: Seven of the AnFAO homologs were synthesized and cloned into the MBP-TEV vector for recombinant expression in E. coli.

[7] = Circular dichroism thermal denaturation; format: physicochemical; settings: 0.3 mg/ml, 20 mM Tris-HCl (pH 7.4), 50 mM NaCl, 0.75 mM DTT, monitored at 222, 20 to 95° C.
Procedure: Activity was measured via reverse-phase LC/MS analysis. […] All proteins were scanned at a concentration of 0.3 mg/ml in buffer containing 20 mM Tris-HCl (pH 7.4), 50 mM NaCl and 0.75 mM DTT. Thermal denaturation was monitored at […] with a temperature scan ranging from 20 to 95° C., increasing by 1° C. per minute with data collection every 30 seconds. Baseline corrected data were converted from millidegrees to mean residue ellipticity, and thermal denaturation curves were produced by nonlinear regression in Graphpad Prism.

## N[C@H]1C(O)O[C@H](CO)[C@@H](O)[C@@H]1O (stereo partly drawn) [glucosamine]
AnFAO_15309 [1]
  relative activity, relative to FB3 (100% activity): 1.2%

## NCCc1ccc(O)c(O)c1 [dopamine]
AnFAO_15309 [1]
  relative activity, relative to FB3 (100% activity): 9.7%

## CCCC[C@@H](C)[C@@H](OC(=O)C[C@@H](CC(=O)O)C(=O)O)[C@H](C[C@@H](C)CCCCCC[C@@H](O)C[C@H](O)[C@H](C)N)OC(=O)C[C@@H](CC(=O)O)C(=O)O [FB2, fumonisin B2]
[2]
  initial conversion rate of intact to deaminated fumonisin: 24.3±1.5 % hr^−1
[2]; co-incubation of FB1 and FB2 at 37° C.
  chemotype preference for FB2 compared to FB1: order of magnitude
AnFAO_15309 [3]; kcat/KM relative to FB2 = 1.0
  fold change (efficiency compared to FB2): 1.0 fold
AnFAO_15309 [3]; recombinant AnFAO_15309
  Km: 195 µM
  kcat: 13.7 min⁻¹
AnFAO_15309 [3]; relative to FB1
  efficiency at deaminating FB2 compared to FB1: 3.2 fold
  increase in catalytic efficiency (kcat) FB2 vs. FB1: ~1.6 fold
  stronger affinity (KM) FB2 vs. FB1: ~2 fold

## NCCCNCCCCNCCCN [spermine]
AnFAO_15309 [1]
  relative activity, relative to FB3 (100% activity): 1.9%

## NCCCC[C@H](N)C(=O)O [lysine]
AnFAO_15309 [1]
  relative activity, relative to FB3 (100% activity): 6.3%

## Fumonisin B1 [FB1]
[2]
  initial conversion rate of intact to deaminated fumonisin: 2.1±0.1 % hr^−1
AnFAO_15309 [3]; kcat/KM relative to FB2 = 1.0
  fold change (efficiency compared to FB2): 0.3 fold

## CCCN [propylamine]
AnFAO_15309 [1]
  relative activity, relative to FB3 (100% activity): 5.6%

## CCCCCCCCCCCCCCC[C@@H](O)[C@@H](N)CO [sphinganine]
AnFAO_15309 [3]
  fold change (efficiency compared to FB2): 16.6 fold
AnFAO_15309 [3]; recombinant AnFAO_15309
  kcat: 36.7 min⁻¹

## NCCCCNCCCN [spermidine]
AnFAO_15309 [1]
  relative activity, relative to FB3 (100% activity): 1.4%

## CCCC[C@@H](C)[C@@H](O)[C@@H](O)C[C@@H](C)C[C@H](O)CCCC[C@@H](O)C[C@H](O)[C@H](C)N [hFB1]
AnFAO_15309 [3]; kcat/KM relative to FB2 = 1.0
  fold change (efficiency compared to FB2): 4.6 fold
AnFAO_15309 [3]; recombinant AnFAO_15309
  kcat: 17.9 min⁻¹

## CCCC[C@@H](C)[C@@H](OC(=O)CC(CC(=O)O)C(=O)O)[C@H](C[C@@H](C)C[C@H](O)CCCCCC[C@@H](O)[C@H](C)N)OC(=O)CC(CC(=O)O)C(=O)O (stereo partly drawn) [FB3]
AnFAO_15309 [1]
  relative activity, relative to FB3 (100% activity): 100%

## NCCc1ccc(O)cc1 [tyramine]
AnFAO_15309 [1]
  relative activity, relative to FB3 (100% activity): 5.8%

## NCCc1c[nH]c2ccc(O)cc12 [serotonin]
AnFAO_15309 [1]
  relative activity, relative to FB3 (100% activity): 3.7%

## NCc1ccccc1 [benzylamine]
AnFAO_15309 [1]
  relative activity, relative to FB3 (100% activity): 1.4%

B1: AnFAO_15309 (Aspergillus niger CBS 513.88) (protein)
chain: MSVSNDPTTKLYDAVIVGAGLSGLQAAHSIQAAGFSVCILEATDRMGGKTLTVKSSEKGYNDLGAAWVNDTNQTEIFKLHQRYGLDGVVQYTCGDDILESGEGVIRKIPYGLPLTGLPKKLLDILRIESSRLDLDDPTSFPGATEVDNLTFRDFCVEKTGSEDVIHITDAISTALLGLNSNELSALYMLYYFKSGSGIDNLLSDERDGAQYLRTRQGTQTIARKMADELTQSDIFLGMPVTSINQTDADAHCVVQTLDGSSFRCRRVIVSIPTTLYRSVSFHPPLPHAKQVLSDHTIMGYYSKVIFIFKEPWWRDAGLTGIVNCAGGPITFTRDTSVPTDDQWSITCFMVGSRGRAWSKLSKDDRYSQVWEQFRRCFEEFVENIPEPVNTLEMEWSKEPYFLGAPCPAMIPGLLTTAGSDLAAPHGKVHFIGTETSTVWRGYMEGAIRAGQRGGAEVVTALQED
[4]
  Km: 31.4 µM
  kcat: 0.612 s⁻¹
  kcat/Km: 19000 M⁻¹ s⁻¹
[5]
  Km: 55.2 µM
  kcat: 0.298 s⁻¹
  kcat/Km: 5400 M⁻¹ s⁻¹

B2: AnFAO_6142: AnFAO homolog clone, SEQ ID NO: 28, identical to AnFAO_10929; substitutions M46V, R82Q, V267L vs AnFAO_15309 (protein)
chain: MSVSNDPTTKLYDAVIVGAGLSGLQAAHSIQAAGFSVCILEATDRVGGKTLTVKSSEKGYNDLGAAWVNDTNQTEIFKLHQQYGLDGVVQYTCGDDILESGEGVIRKIPYGLPLTGLPKKLLDILRIESSRLDLDDPTSFPGATEVDNLTFRDFCVEKTGSEDVIHITDAISTALLGLNSNELSALYMLYYFKSGSGIDNLLSDERDGAQYLRTRQGTQTIARKMADELTQSDIFLGMPVTSINQTDADAHCVVQTLDGSSFRCRRLIVSIPTTLYRSVSFHPPLPHAKQVLSDHTIMGYYSKVIFIFKEPWWRDAGLTGIVNCAGGPITFTRDTSVPTDDQWSITCFMVGSRGRAWSKLSKDDRYSQVWEQFRRCFEEFVENIPEPVNTLEMEWSKEPYFLGAPCPAMIPGLLTTAGSDLAAPHGKVHFIGTETSTVWRGYMEGAIRAGQRGGAEVVTALQED
modifications: Aspergillus niger
notes: substitutions M46V, R82Q, V267L vs AnFAO_15309
[6]; 80 nM enzyme, 25 μM FB1, pH 7
  activity compared to AnFAO_15309 (fold): 2.5 ×
[6]; relative to AnFAO_15309 = 1
  relative activity: (relative activity = 2.5):
[7]
  melting temperature: 76 °C

B3: AnFAO_10927: AnFAO homolog clone, SEQ ID NO: 27 (protein)
chain: MSVSNDPTTKLYDAVIVGAGLSGLQAAHSIQAAGFSVCILEATDRVGGKTLTVKSSEKGYNDLGAAWVNDTNQTEIFKLHQRYGLDGVVQYTCGDDILESGEGVIRKIPYGLPLTGLPKKLLDILRIESSRLDLDDPTSFPGATEVDNLTFRDFCVEKTGSEDVIHITDAISTALLGLNSNELSALYMLYYFKSGSGIDNLLSDERDGAQYLRTRQGTQTIARKMADELSQSDIFLGMPVTSINQTDADAHCVVKTLDGSSFRCRRVIVSIPTTLYRSVSFHPPLPHAKQVLSDHTIMGYYSKVIFIFKEPWWRDAGLTGIVDCAGGPITFTRDTSVPTDDQWSITCFMVGSRGRAWSKLSKDDRYSQVWEQFRRFFEEFVENIPEPANTLEMEWSKEPYFLGAPCPAMIPGLLTTAGSDLAAPHGKVHFIGTETSTVWRGYMEGAIRAGQRGGAEVVTALQED
modifications: Aspergillus niger
[6]; 80 nM enzyme, 25 μM FB1, pH 7
  activity compared to 15309: 31%
[7]
  melting temperature: 76 °C

B4: AnFAO_7097: AnFAO homolog clone, SEQ ID NO: 29 (protein)
chain: MSVSNDPTTKLYDAVIVGAGLSGLQAAHSIQAAGFSVCILEATDRVGGKTLTVKSSEKGYNDLGAAWVNDTNQTEIFKLHQQYGLDGVVQYTCGDDILESGEGVIRKIPYGLPLTGLPKKLLDILRIESSRLDLDDPTSFPGATEVDNLTFRDFCVEKTGSEDVIHITDAISTALLGLNSNELSALYMLYYFKSGSGIDNLLSDERDGAQYLRTRQGTQTIARKMADELTQSDIFLGMPVTSINQTDADAHCVVQTLDGSSFRCRRVIVSIPTTLYRSVSFHPPLPHAKQVLSDHTIMGYYSKVIFIFKEPWWRDAGLTGIVDCAGGPITFTRDTSVPTDDQWSITCFMVGSRGRAWSKLSKDDRYSQVWEQFRRCLEGFVENIPEPANTLEMEWSKEPYFLGAPCPAMIPGLLTTTGSDLAAPHGKVHFIGTETSTVWRGYMEGAIRAGQRGGAEVVTALQED
modifications: Aspergillus niger
[6]; 80 nM enzyme, 25 μM FB1, pH 7
  activity compared to 15309: 27%
